Source: US20220273011A1, “GINGEROL COMPOUNDS AND THEIR USE AS FLAVOR MODIFIERS” (Firmenich SA, priority 2019, published 2022)

Columns and labels:
Type in all cases: in vivo
[1] = test system: salty taste and/or umami taste; assay: Sensory tests of the compounds of formula (I) and (III) in reference solutions (NaCl, MSG, KCl), with or without nose clip; details: for enhancing effect for a salty or umami taste: references: 0.25% NaCl, 0.05% MSG, 0.25% KCl solution, FIGS. 1-6
Protocol: Sensory tests of the compounds of the present application were conducted. The compounds of formula (I) and (III) of the present application were tasted in sensory tests for their ability to enhance salty taste and/or umami taste in food products. The sensory tests were evaluated in four characters as saltiness, umami taste, saltiness in the presence of potassium chloride, and potassium chloride taste. The food products were evaluated with or without these compounds relevant to references (as indicated “With NC-Ref”, or “Without NC-Ref” in figures). The reference for saltiness was a 0.25% NaCl solution, the reference for umami was a 0.05% MSG solution, and the salty/bitter reference was a 0.25% KCl solution. The data was analyzed for statistical significances (indicated as * in the figures), such as levels of significance or graph of differences between means.
FIGS. 1-6 show the results of sensory tests for enhancing salty taste and/or umami taste using the compounds of formula (I) and (III) of the present application.

[2] = test system: salty taste and/or umami taste; assay: Sensory tests in chicken bouillon; details: for taste description: 10 ppm in chicken bouillon (0.7% salt, 0.04% MSG)
Protocol: [10]-gingerdiol and [10]-gingerdioldiacetate were tested to evaluate their ability to enhance salty taste and/or umami taste in chicken bouillon (GVA-000589, 0.7% salt, 0.04% MSG, no pepper, with 0.08% Chicken Flexarome 880449 FBS42).
The sensory tests were evaluated for salt intensity, umami intensity, and liking intensity. The experiments were conducted in four designs, i.e. UNF (reference), Ericamide ((E)-3-(3,4-dimethoxyphenyl)-N-(4-methoxyphenethyl)acrylamide, FEMA 4877) at 10 ppm, [10]-gingerdiol at 10 ppm, and [10]-gingerdioldiacetate at 10 ppm.

[3] = test system: salty taste and/or umami taste; assay: Sensory tests in basic beef noodle seasoning; details: 10 ppm in salt water, in comparison to 0.3% salt; FIG. 8
Protocol: [6]-gingerdiol, [8]-gingerdiol, and [10]-gingerdioldiacetate were tested to evaluate their abilities to enhance salty taste and/or umami taste in basic beef noodle seasoning (GVA-003129, no salt, no MSG; salt (−25%) 0.525% RTC, MSG 0.25% RTC; Corned Beef 589879 CB at 0.2% RTC).
The sensory tests were evaluated for salt intensity, umami intensity, bitter intensity and liking intensity. The experiments were conducts in four designs, i.e. salt at 0.3%, [6]-gingerdiol at 10 ppm in salt water, [8]-gingerdiol at 10 ppm in salt water, and [10]-gingerdioldiacetate at 10 ppm in salt water.

## CCCCCCC[C@@H](C[C@@H](CCc1ccc(O)c(OC)c1)OC(C)=O)OC(C)=O [[8]-gingerdioldiacetate]
[1]; FIG. 4
  enhancing salty taste and/or umami taste in food products: unexpected and excellent results
[1]
  enhancing effect for a salty or umami taste: enhancing effect for a salty or umami taste

## CCCCCCCCC[C@H](O)C[C@H](O)CCc1ccc(O)c(OC)c1 [[10]-gingerdiol]
[1]
  enhancing effect for a salty or umami taste: enhancing effect for a salty or umami taste
[2]
  taste description: less round, more salty, more acidic, chickeny balanced, coriander leaf, good and quite clean tastes
[2]; 10 ppm in chicken bouillon, vs UNF (reference), FIG. 9
  salt intensity: unexpected effects in enhancing the salt intensity

## CCCCCCCCC[C@@H](C[C@@H](CCc1ccc(O)c(OC)c1)OC(C)=O)OC(C)=O [[10]-gingerdioldiacetate]
[1]
  enhancing effect for a salty or umami taste: enhancing effect for a salty or umami taste
[3]
  bitter intensity: less bitter intensities
  liking intensity: higher liking intensities
  salt intensity: higher salt intensity
  umami intensity: higher umami intensities
[2]
  taste description: strange, salty, solvent note, fruity, and some off tastes

## CCCCC[C@H](O)C[C@H](O)CCc1ccc(O)c(OC)c1 [[6]-gingerdiol]
[3]
  bitter intensity: less bitter intensities
  liking intensity: higher liking intensities
  salt intensity: comparable salt intensities
  umami intensity: higher umami intensities

## CCCCCCC[C@H](O)C[C@H](O)CCc1ccc(O)c(OC)c1 [[8]-gingerdiol]
[1]
  enhancing effect for a salty or umami taste: enhancing effect for a salty or umami taste
[3]
  bitter intensity: less bitter intensities
  liking intensity: higher liking intensities
  salt intensity: comparable salt intensities
  umami intensity: higher umami intensities

## COc1ccc(CCNC(=O)/C=C/c2ccc(OC)c(OC)c2)cc1 [Ericamide, (E)-3-(3,4-dimethoxyphenyl)-N-(4-methoxyphenethyl)acrylamide, reference compound]
[2]
  taste description: chickeny, balanced, good mouthfeel and salty tastes
